How the values were obtained:
[1] = system: Salmonella typhimurium; assay: Antibiofilm activity against Salmonella typhimurium ATCC 14028 after 24 hrs by crystal violet staining based assay; format: functional, organism-based, Salmonella enterica subsp. enterica serovar Typhimurium; conditions: Salmonella enterica, ATCC 14028, 24 h
[2] = system: Pseudomonas aeruginosa; assay: Antibiofilm activity against Pseudomonas aeruginosa PA14 after 24 hrs by crystal violet staining based assay; format: functional, organism-based; conditions: PA14, 24 h
[3] = system: Escherichia coli; assay: Antibiofilm activity against Escherichia coli TG1 after 24 hrs by crystal violet staining based assay; format: functional, organism-based; conditions: TG1, 24 h
[4] = system: Staphylococcus aureus; assay: Antibiofilm activity against Staphylococcus aureus SH1000 after 48 hrs by crystal violet staining based assay; format: functional, organism-based; conditions: SH1000, 48 h
[5] = system: Salmonella typhimurium; assay: Inhibition of planktonic growth of Salmonella typhimurium ATCC 14028 after 24 hrs; format: organism-based, Salmonella enterica subsp. enterica serovar Typhimurium; conditions: Salmonella enterica, ATCC 14028, 24 h
[6] = system: Escherichia coli; assay: Inhibition of planktonic growth of Escherichia coli TG1 after 24 hrs; format: organism-based; conditions: TG1, 24 h
[7] = system: Staphylococcus aureus; assay: Inhibition of planktonic growth of Staphylococcus aureus SH1000 after 48 hrs; format: organism-based; conditions: SH1000, 48 h

Structure (SMILES)	IC50 [1] [µM]	IC50 [2] [µM]	IC50 [3] [µM]	IC50 [4] [µM]	IC50 [5] [µM]	IC50 [6] [µM]	IC50 [7] [µM]
Fc1ccc(-c2cnc(NCCCCNc3ncc(-c4ccc(F)cc4)[nH]3)[nH]2)cc1	5.9	5.6	6.5	40.6	46	4.55	144
Brc1ccc(-c2cnc(NCCCCCCCNc3ncc(-c4ccc(Br)cc4)[nH]3)[nH]2)cc1	50.4	252	19.1	300	> 800	122	217
c1ccc(-c2cnc(NCCCCNc3ncc(-c4ccccc4)[nH]3)[nH]2)cc1	7.7	5.9	12.3	28.6	49.4	6.81	301
Brc1ccc(-c2cnc(NCCCCNc3ncc(-c4ccc(Br)cc4)[nH]3)[nH]2)cc1	13.2	11.2	7.2	300	> 800	> 100	145
Fc1ccc(-c2cnc(NCCCCCCCCNc3ncc(-c4ccc(F)cc4)[nH]3)[nH]2)cc1	11.6	15.2	31.5	372	> 800	47.6	250
Brc1ccc(-c2cnc(NCCCCCCCCNc3ncc(-c4ccc(Br)cc4)[nH]3)[nH]2)cc1	31.3	893	90.6	68.1	> 800	136	69.3
Brc1ccc(-c2cnc(NCCCCCNc3ncc(-c4ccc(Br)cc4)[nH]3)[nH]2)cc1	6.5	13.4	10.5	12	35.9	22.4	26.4
c1ccc(-c2cnc(NCCCNc3ncc(-c4ccccc4)[nH]3)[nH]2)cc1	5.7	2.8	4.1	300	75.9	2.82	292
Brc1ccc(-c2cnc(NCCCNc3ncc(-c4ccc(Br)cc4)[nH]3)[nH]2)cc1	5.5	11.2	4.1	24.2	11.9	4.77	29.2
Fc1ccc(-c2cnc(NCCCCCCCNc3ncc(-c4ccc(F)cc4)[nH]3)[nH]2)cc1	10.4	7.5	10	107	86.1	7.48	121
Brc1ccc(-c2cnc(NCCCCCCNc3ncc(-c4ccc(Br)cc4)[nH]3)[nH]2)cc1	15.7	8.8	8.3	53.3	> 800	6.43	93.8
Fc1ccc(-c2cnc(NCCCCCCNc3ncc(-c4ccc(F)cc4)[nH]3)[nH]2)cc1	10.3	10.1	5.4	8.9	23.8	5.52	28.7
Fc1ccc(-c2cnc(NCCCCCNc3ncc(-c4ccc(F)cc4)[nH]3)[nH]2)cc1	7.6	1.7	7	150	85.4	16.4	105

Continued, in another order:

IC50 [1] [µM]	IC50 [2] [µM]	IC50 [3] [µM]	IC50 [4] [µM]	Structure (SMILES)	IC50 [5] [µM]	IC50 [6] [µM]	IC50 [7] [µM]
12.3	13	9.3	200	Clc1ccc(-c2cnc(NCCCCNc3ncc(-c4ccc(Cl)cc4)[nH]3)[nH]2)cc1	41.6	31.6	158
30.5	80.4	24.8	150	Clc1ccc(-c2cnc(NCCCCCCNc3ncc(-c4ccc(Cl)cc4)[nH]3)[nH]2)cc1	529	96.6	327
23	120	35	150	Clc1ccc(-c2cnc(NCCCCCCCNc3ncc(-c4ccc(Cl)cc4)[nH]3)[nH]2)cc1	> 800	29.8	141
6.3	5.7	4.8	50	Fc1ccc(-c2cnc(NCCCNc3ncc(-c4ccc(F)cc4)[nH]3)[nH]2)cc1	59.2	16.2	60.1
2.7	5.6	4.9	13	Clc1ccc(-c2cnc(NCCCNc3ncc(-c4ccc(Cl)cc4)[nH]3)[nH]2)cc1	11.4	14.7	23.5
3.8	6	12	94.4	Clc1ccc(-c2cnc(NCCCCCNc3ncc(-c4ccc(Cl)cc4)[nH]3)[nH]2)cc1	15.2	224	90.2
8.3	31.6	42.7	300	Clc1ccc(-c2cnc(NCCCCCCCCNc3ncc(-c4ccc(Cl)cc4)[nH]3)[nH]2)cc1	47.8	44	121

— ChEMBL document CHEMBL4219072, “Enhancing the anti-biofilm activity of 5-aryl-2-aminoimidazoles through nature inspired dimerisation” (Bioorg Med Chem, 2018)
